Values quoted from earlier work in patent publication US20240136011A1, “SYSTEM, METHOD, AND COMPUTER PROGRAM FOR PHYSICS-BASED BINDING AFFINITY ESTIMATION” (BOARD OF TRUSTEES OF THE UNIVERSITY OF ARKANSAS, priority 2022, published 2024).

Target: human fibroblast growth factor 1 (hFGF1) (Homo sapiens, UniProt P05230)
Settings: MM-GBSA; recent computational studies

human fibroblast growth factor 1 (hFGF1), sequence (P05230 whole entry): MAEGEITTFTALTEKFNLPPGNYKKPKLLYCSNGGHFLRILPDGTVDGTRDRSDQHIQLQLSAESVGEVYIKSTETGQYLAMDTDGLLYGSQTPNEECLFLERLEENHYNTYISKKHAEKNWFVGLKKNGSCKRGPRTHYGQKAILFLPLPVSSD

ΔG°: -95 ± 11 kcal/mol
Substance: heparin hexasaccharide
